Test results from paper PMC4084622 (Journal of Medicinal Chemistry, 2014).
Converted amounts (≈) assume the structure as drawn. Like-named read-outs stand apart in the source and are kept apart here.

What was measured:
M. smegmatis cells, ΔpH = format: cell-based, Mycobacterium smegmatis
[1] = target: M. smegmatis MenA (MsMenA) (Mycolicibacterium smegmatis, UniProt A0QR52); conditions: read-out: MenA IC50; same assay as used here; cited from earlier work
E. coli IMVs, ΔpH = assay: ΔpH collapse in E. coli inverted membrane vesicles; format: biochemical, Escherichia coli; conditions: qualitative
[2] = target: P. vivax geranylgeranyl diphosphate synthase (GGPPS) (Plasmodium vivax, UniProt A5K4U6); assay: biochemical
[3] = target: S. aureus undecaprenyl diphosphate synthase (UPPS) (Staphylococcus aureus, UniProt P60477); assay: S. aureus UPPS inhibition; format: biochemical
human SQS = target: T1, human SQS (Homo sapiens, UniProt P37268); assay: Human SQS inhibition; format: biochemical
T1 sequence (P37268 1-417): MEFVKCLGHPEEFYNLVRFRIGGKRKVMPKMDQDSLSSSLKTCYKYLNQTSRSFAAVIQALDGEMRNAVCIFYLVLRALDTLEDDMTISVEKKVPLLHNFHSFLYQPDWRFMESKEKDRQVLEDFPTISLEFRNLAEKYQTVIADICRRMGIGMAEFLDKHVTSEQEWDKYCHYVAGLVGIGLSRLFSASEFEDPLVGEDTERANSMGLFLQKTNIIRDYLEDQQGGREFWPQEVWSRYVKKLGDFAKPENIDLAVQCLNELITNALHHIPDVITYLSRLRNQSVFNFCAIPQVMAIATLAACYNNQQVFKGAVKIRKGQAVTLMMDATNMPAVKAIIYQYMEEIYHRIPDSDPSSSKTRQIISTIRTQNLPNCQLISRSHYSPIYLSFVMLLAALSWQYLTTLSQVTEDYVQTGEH

E. coli = assay: microbe, parasite or virus in culture; format: cell-based; conditions: Escherichia coli
S. cerevisiae = assay: microbe, parasite or virus in culture; format: cell-based, Saccharomyces cerevisiae; conditions: for IC50: Saccharomyces cerevisiae
SaCrtM = target: T2, SaCrtM (Staphylococcus aureus, UniProt A9JQL9); assay: SaCrtM inhibition; format: biochemical, S. aureus
T2 sequence (A9JQL9 1-287): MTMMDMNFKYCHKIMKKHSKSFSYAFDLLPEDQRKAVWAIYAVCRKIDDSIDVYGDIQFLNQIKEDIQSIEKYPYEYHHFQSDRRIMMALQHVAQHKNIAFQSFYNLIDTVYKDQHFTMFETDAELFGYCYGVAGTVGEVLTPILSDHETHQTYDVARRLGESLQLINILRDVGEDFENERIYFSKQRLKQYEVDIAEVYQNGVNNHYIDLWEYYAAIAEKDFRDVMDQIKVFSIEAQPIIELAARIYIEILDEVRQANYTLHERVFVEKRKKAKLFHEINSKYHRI

[4] = target: M. smegmatis membrane dehydrogenases (NADH, deamino-NADH, succinate, lactate substrates); assay: Dehydrogenase activities, MTT reduction, M. smegmatis membranes; format: biochemical, Mycobacterium smegmatis; conditions: in general (all substrates except malate)
[5] = system: S. aureus (MRSA USA300 strain); assay: microbe, parasite or virus in culture; format: cell-based; conditions: Staphylococcus aureus, MRSA|USA300, read-out: Sa MIC, MRSA USA300 strain
[6] = target: M. tuberculosis cis-farnesyl diphosphate synthase (Rv1086) (Mycobacterium tuberculosis, UniProt P9WFF5); assay: cis-farnesyl diphosphate synthase inhibition; format: biochemical
malate dehydrogenase = malate dehydrogenase (Mycolicibacterium smegmatis, UniProt A0QVL2); assay: Malate dehydrogenase activity, MTT reduction, M. smegmatis membranes; format: biochemical, Mycobacterium smegmatis
MCF-7 = assay: cells; format: cell-based; conditions: Homo sapiens, MCF7, read-out: MCF-7 IC50
B. subtilis = assay: microbe, parasite or virus in culture; format: cell-based; conditions: Bacillus subtilis
[7] = target: M. tuberculosis cis-decaprenyl diphosphate synthase (Rv2361) (Mycobacterium tuberculosis, UniProt P9WFF7); assay: cis-decaprenyl diphosphate synthase inhibition; format: biochemical
[8] = system: nonreplicating M. tuberculosis (streptomycin-starved 18b); format: cell-based, Mycobacterium tuberculosis; conditions: for effect on nonreplicating bacterial activity (CFU): 7 days
M. tuberculosis = assay: microbe, parasite or virus in culture; format: cell-based, Mycobacterium tuberculosis; conditions: for MIC: Mycobacterium tuberculosis
[9] = target: E. coli undecaprenyl diphosphate synthase (UPPS) (Escherichia coli, UniProt P60472); assay: E. coli UPPS inhibition; format: biochemical
C. albicans = assay: microbe, parasite or virus in culture; format: cell-based; conditions: Candida albicans
[10] = target: S. aureus farnesyl diphosphate synthase (FPPS) (Staphylococcus aureus, UniProt Q2FY48); assay: biochemical
[11] = read-out: Sc IC50 (in parentheses)
[12] = read-out: Bs IC50 (in parentheses)
[13] = read-out: Ca IC50 (in parentheses)
[14] = read-out: Ec IC50 (in parentheses)

Chain of M. tuberculosis cis-farnesyl diphosphate synthase (Rv1086) (P9WFF5 whole entry): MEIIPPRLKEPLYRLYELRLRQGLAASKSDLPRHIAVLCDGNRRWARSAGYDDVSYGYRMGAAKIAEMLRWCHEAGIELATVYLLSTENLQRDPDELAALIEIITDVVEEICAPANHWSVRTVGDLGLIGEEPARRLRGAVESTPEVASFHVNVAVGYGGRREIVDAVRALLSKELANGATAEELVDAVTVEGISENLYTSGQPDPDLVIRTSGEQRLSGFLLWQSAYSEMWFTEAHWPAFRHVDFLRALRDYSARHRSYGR
Chain of S. aureus farnesyl diphosphate synthase (FPPS) (Q2FY48 1-293): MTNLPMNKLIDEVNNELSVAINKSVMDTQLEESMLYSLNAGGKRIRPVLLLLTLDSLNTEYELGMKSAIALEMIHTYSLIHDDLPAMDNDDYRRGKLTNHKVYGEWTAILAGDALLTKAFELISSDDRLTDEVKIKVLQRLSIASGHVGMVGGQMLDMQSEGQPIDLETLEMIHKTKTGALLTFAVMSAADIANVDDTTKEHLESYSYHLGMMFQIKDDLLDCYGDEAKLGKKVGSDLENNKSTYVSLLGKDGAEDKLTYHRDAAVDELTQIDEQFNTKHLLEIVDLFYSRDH
Chain of M. smegmatis MenA (MsMenA) (A0QR52 1-289): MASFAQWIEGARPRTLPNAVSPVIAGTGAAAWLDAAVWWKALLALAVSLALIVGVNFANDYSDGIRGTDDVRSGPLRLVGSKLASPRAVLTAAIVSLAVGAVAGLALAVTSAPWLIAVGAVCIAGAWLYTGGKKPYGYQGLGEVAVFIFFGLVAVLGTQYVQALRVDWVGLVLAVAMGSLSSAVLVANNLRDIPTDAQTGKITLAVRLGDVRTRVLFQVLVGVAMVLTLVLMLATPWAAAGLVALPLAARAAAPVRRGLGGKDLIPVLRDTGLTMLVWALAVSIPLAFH
Chain of malate dehydrogenase (A0QVL2 whole entry): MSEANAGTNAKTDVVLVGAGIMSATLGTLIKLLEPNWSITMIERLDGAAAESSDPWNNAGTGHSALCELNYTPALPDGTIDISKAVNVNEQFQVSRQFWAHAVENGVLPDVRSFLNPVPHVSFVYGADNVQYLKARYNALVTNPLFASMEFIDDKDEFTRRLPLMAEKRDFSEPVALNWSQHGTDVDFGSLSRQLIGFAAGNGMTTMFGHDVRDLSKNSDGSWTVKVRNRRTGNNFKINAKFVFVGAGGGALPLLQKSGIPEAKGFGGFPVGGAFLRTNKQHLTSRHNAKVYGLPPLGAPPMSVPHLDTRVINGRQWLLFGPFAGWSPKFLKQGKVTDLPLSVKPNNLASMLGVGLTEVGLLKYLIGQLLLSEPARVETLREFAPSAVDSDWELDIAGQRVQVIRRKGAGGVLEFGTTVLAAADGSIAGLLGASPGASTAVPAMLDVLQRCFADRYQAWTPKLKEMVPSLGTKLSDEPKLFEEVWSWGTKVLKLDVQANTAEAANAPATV
Chain of S. aureus undecaprenyl diphosphate synthase (UPPS) (P60477 whole entry): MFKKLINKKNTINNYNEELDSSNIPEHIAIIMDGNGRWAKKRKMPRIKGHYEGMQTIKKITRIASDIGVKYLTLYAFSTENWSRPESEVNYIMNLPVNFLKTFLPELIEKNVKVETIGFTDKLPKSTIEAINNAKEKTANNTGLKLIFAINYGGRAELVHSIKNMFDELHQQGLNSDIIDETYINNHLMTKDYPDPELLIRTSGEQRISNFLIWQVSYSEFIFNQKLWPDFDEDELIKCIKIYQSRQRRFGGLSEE
Chain of P. vivax geranylgeranyl diphosphate synthase (GGPPS) (A5K4U6 1-375): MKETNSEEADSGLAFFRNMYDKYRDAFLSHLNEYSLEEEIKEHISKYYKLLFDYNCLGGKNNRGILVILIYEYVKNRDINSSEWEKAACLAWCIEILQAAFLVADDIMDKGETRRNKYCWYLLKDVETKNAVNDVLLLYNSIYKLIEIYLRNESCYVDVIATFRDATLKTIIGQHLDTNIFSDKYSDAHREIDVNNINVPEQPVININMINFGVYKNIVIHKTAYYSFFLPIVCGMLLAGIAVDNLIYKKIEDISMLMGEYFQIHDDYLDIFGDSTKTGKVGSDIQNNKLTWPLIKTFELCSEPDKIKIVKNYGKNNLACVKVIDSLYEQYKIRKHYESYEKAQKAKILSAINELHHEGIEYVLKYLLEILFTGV
Chain of M. tuberculosis cis-decaprenyl diphosphate synthase (Rv2361) (P9WFF7 whole entry): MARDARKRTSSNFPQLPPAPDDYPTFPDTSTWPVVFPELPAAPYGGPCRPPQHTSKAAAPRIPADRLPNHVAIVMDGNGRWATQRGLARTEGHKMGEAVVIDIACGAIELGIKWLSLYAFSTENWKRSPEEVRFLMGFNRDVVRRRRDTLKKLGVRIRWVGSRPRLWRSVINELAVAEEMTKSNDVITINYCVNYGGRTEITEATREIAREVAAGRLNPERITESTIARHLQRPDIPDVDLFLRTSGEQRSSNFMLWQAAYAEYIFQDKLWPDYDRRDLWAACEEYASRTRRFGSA
Chain of E. coli undecaprenyl diphosphate synthase (UPPS) (P60472 whole entry): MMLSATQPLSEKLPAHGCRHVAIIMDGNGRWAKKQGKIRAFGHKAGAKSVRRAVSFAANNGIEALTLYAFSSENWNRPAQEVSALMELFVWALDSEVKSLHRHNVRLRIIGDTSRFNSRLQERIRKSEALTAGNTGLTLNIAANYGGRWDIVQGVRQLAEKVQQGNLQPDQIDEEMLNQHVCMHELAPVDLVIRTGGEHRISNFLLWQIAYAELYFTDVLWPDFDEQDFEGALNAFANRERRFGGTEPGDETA

| SMILES | effect on pH gradient (ΔpH) (M. smegmatis cells, ΔpH) | IC50 (E. coli; read-out: Ec IC50) | MIC [5] | IC50 (MCF-7) | IC50 (B. subtilis; read-out: Bs IC50) | MIC (M. tuberculosis; read-out: Mt MIC) | IC50 (C. albicans; read-out: Ca IC50) | IC50 (S. cerevisiae; read-out: Sc IC50) | IC50 (C. albicans; [13]) | also measured |
| --- | --- | --- | --- | --- | --- | --- | --- | --- | --- | --- |
| N#CC(C#N)=NNc1cccc(Cl)c1 [CCCP, m-chlorophenylcarbonyl cyanide phenylhydrazone] | collapsed | – | – | – | – | – | – | – | – | – |
| C=CCN(C)CCCCCCOc1ccc(C(=O)c2ccc(Br)cc2)c(F)c1 [Ro 48-8071] | – | – | – | – | – | – | – | – | – | IC50 [1]: 9 µM |
| CC(C)(C)c1cc(C=C(C#N)C#N)cc(C(C)(C)C)c1O [SF6847, reference compound] | – | – | – | – | – | – | – | – | – | effect on ΔpH (E. coli IMVs, ΔpH): very rapid (seconds) collapse in ΔpH |
| CC(C)=CCC/C(C)=C/CNCCNC1C2CC3CC(C2)CC1C3 (centres unmarked) [compound 1, SQ109] | collapsed | 2.8 µg/mL | > 120 µg/mL | 6 µg/mL (≈ 18.2 µM) | 7.6 µg/mL | 0.1 to 0.2 µg/mL | 3.3 µg/mL | – | – | IC50 [2]: ≥ 50 µM; IC50 [3]: ≥ 50 µM; activity (human SQS): ~100 µM; Sc IC50 (S. cerevisiae): 1.1 µg/mL; activity (SaCrtM): ~100 µM; IC50 [4]: ~30 µg/mL (≈ 90.8 µM); IC50 [6]: ≥ 50 µM; IC50 (malate dehydrogenase): 30.3 µM; IC50 [7]: ≥ 50 µM; effect on nonreplicating bacterial activity (CFU) ([8]; 1 μg/mL, absence of MK-4): only a small effect; effect on nonreplicating bacterial activity (CFU) ([8]; 1 μg/mL, presence of 1 mM MK-4): essentially no effect; reduction of cell activity (CFU) ([8]; 10 μg/mL, 7 days exposure, absence of MK-4): ~4 log units; effect on nonreplicating bacterial activity (CFU) ([8]; 10 μg/mL, presence of 1 mM MK-4): small effect; MIC (M. tuberculosis; read-out: Mt MIC (in parentheses)): 0.3 to 0.6 µM; IC50 [9]: ≥ 50 µM; IC50 [10]: ≥ 50 µM |
| CC(C)=CCC/C(C)=C/COCCNC1C2CC3CC(C2)CC1C3 (centres unmarked) [compound 4] | – | 4.3 µg/mL | > 120 µg/mL | 112 µg/mL (≈ 338 µM) | > 66 µg/mL | ~0.2 µg/mL | > 66 µg/mL | > 33 µg/mL | > 199 µM | activity (human SQS; human SQS, weak activity): ~100 µM; IC50 (S. cerevisiae; [11]): > 100 µM; activity (SaCrtM; SaCrtM, weak activity): ~100 µM; IC50 (B. subtilis; [12]): > 199 µM; Mt MIC (M. tuberculosis): 0.19 µg/mL |
| CC(C)=CCC/C(C)=C/COCCOC1C2CC3CC(C2)CC1C3 (centres unmarked) [compound 5] | – | > 332 µg/mL | > 64 µg/mL | 73 µg/mL (≈ 220 µM) | > 66 µg/mL | – | > 66 µg/mL | > 332 µg/mL | > 198 µM | effect on ΔpH (E. coli IMVs, ΔpH): no effect; IC50 (E. coli; [14]): > 1 mM; IC50 (S. cerevisiae; [11]): > 1000 µM; IC50 (B. subtilis; [12]): > 199 µM |
| CC(C)=CCC/C(C)=C/CNCCCOC1C2CC3CC(C2)CC1C3 (centres unmarked) [compound 6] | – | 2.3 µg/mL | ~8 µg/mL (≈ 23.2 µM) | 3.4 µg/mL (≈ 9.84 µM) | 3 µg/mL | 1.6 µg/mL | 6.5 µg/mL | 2.7 µg/mL | – | – |
| CC(C)=CCC/C(C)=C/C[N+](C)(C)CCOC1C2CC3CC(C2)CC1C3.[I-] (centres unmarked) [compound 7] | – | 37 µg/mL | 8 µg/mL | 3.2 µg/mL | 4.2 µg/mL | 0.78 µg/mL | 18 µg/mL | 15 µg/mL | – | – |
| CC(C)=CCC/C(C)=C/CNC(=O)COC1C2CC3CC(C2)CC1C3 (centres unmarked) [compound 8] | – | > 345 µg/mL | > 120 µg/mL | 12 µg/mL (≈ 34.7 µM) | > 69 µg/mL | 0.78 µg/mL | > 69 µg/mL | > 69 µg/mL | > 200 µM | IC50 (E. coli; [14]): > 1 mM; IC50 (S. cerevisiae; [11]): > 200 µM; IC50 (B. subtilis; [12]): > 200 µM |
| CC(C)=CCC/C(C)=C/COCC(=O)NC1C2CC3CC(C2)CC1C3 (centres unmarked) [compound 9] | – | > 345 µg/mL | > 120 µg/mL | 9.3 µg/mL (≈ 26.9 µM) | 17 µg/mL | 12 µg/mL | > 69 µg/mL | > 69 µg/mL | > 200 µM | IC50 (E. coli; [14]): > 1 mM; IC50 (S. cerevisiae; [11]): > 200 µM |
| CC(C)=CCC/C(C)=C/CNCCOC(C)(C)C [compound 10] | – | > 126 µg/mL | > 16 µg/mL | 45 µg/mL (≈ 178 µM) | > 50 µg/mL | 6.2 µg/mL | > 50 µg/mL | 44 µg/mL | > 198 µM | IC50 (E. coli; [14]): > 0.498 mM; IC50 (B. subtilis; [12]): > 198 µM |
| CC(C)=CCC/C(C)=C/CNCCOc1ccccc1 [compound 11] | – | 60 µg/mL | 32 µg/mL (≈ 117 µM) | 6.3 µg/mL (≈ 23 µM) | 17 µg/mL | 6.2 µg/mL | 20 µg/mL | 3 µg/mL | – | – |
| CC(C)=CCC/C(C)=C/CNCCOc1cccc2ccccc12 [compound 12] | – | 15 µg/mL | ~8 µg/mL (≈ 24.7 µM) | 7.1 µg/mL (≈ 21.9 µM) | 2.4 µg/mL | 6.2 µg/mL | 12 µg/mL | 3.7 µg/mL | – | – |
| CC(C)=CCC/C(C)=C/CNCCO[C@@H]1C[C@@H]2CC[C@@]1(C)C2(C)C [compound 13] | collapsed | 12 µg/mL | ~8 µg/mL (≈ 24 µM) | 1.3 µg/mL (≈ 3.9 µM) | 1.8 µg/mL | – | 6.3 µg/mL | 1 to 3 µg/mL | – | Sc IC50 (S. cerevisiae): 0.89 µg/mL |
| CO[C@@H]1C[C@@H](C[C@H]2CC[C@H](C)[C@H]([C@@H](C)C(=O)O)O2)O[C@]2(O[C@](C)([C@H]3CC[C@@](C)([C@@H]4O[C@@H]([C@H]5O[C@@](O)(CO)[C@H](C)C[C@@H]5C)C[C@@H]4C)O3)C[C@H]2C)[C@@H]1C [nigericin] | collapsed | – | – | – | – | – | – | – | – | – |
| CC(C)[C@@H]1NC(=O)[C@H](C)OC(=O)[C@@H](C(C)C)NC(=O)[C@@H](C(C)C)OC(=O)[C@H](C(C)C)NC(=O)[C@H](C)OC(=O)[C@@H](C(C)C)NC(=O)[C@@H](C(C)C)OC(=O)[C@H](C(C)C)NC(=O)[C@H](C)OC(=O)[C@@H](C(C)C)NC(=O)[C@@H](C(C)C)OC1=O [valinomycin] | no effect | – | – | – | – | – | – | – | – | – |
